Literature values in article PMC8198792, “Prediction of Anticancer Peptides with High Efficacy and Low Toxicity by Hybrid Model Based on 3D Structure of Peptides” (International Journal of Molecular Sciences, 2021).
Like-named read-outs stand apart in the source and are kept apart here.

Tested on: cancer cell lines
Design: method as in 6 sources, ref CancerPPD [45] and SATPdb ||| ref CancerPPD/SATPdb ||| ref CancerPPD, SATPdb, Swissprot (PDB) ||| ref CancerPPD/SATPdb/Swissprot(PDB) ||| ref CancerPPD / SATPdb ||| ...
Conditions: cited from earlier work
Description: Supplement ijms-22-05630-s001.zip/ACPs(seguence).xlsx, sheet "D1" | column: Activity || Supplement ijms-22-05630-s001.zip/ACPs(seguence).xlsx, sheet "D2" | column: Activity || Supplement ijms-22-05630-s001.zip/ACPs(seguence).xlsx, sheet "D3" | column: Activity || (+ 2 further places)

[1] = ACPs dataset D1, label 1 = ACP, 0 = non-ACP (non-anticancer AMPs from SATPdb), ref CancerPPD/SATPdb
[2] = ACPs dataset D4 (sheet "D4"), label 1 = ACP (CancerPPD ID), 0 = non-ACP (non-anticancer AMP, SATPdb ID), ref CancerPPD [45] and SATPdb
[3] = ACPs dataset D4 (sheet "D4"), label 1 = ACP, 0 = non-ACP, ref CancerPPD / SATPdb
[4] = ACPs dataset D1, 1 = ACP (positive), 0 = non-ACP (negative), label taken from databases, ref CancerPPD [45] and SATPdb
[5] = ACPs dataset D4 (sheet "D4"), label 1 = ACP, experimentally validated ACPs, ref CancerPPD [45] and SATPdb
[6] = ACPs dataset D5 (sheet "D5"), label 1 = ACP (positive set), sequences with CancerPPD/SATPdb ID, ref CancerPPD, SATPdb
[7] = ACPs dataset sheet D2, 1 = ACP (CancerPPD/SATPdb ID), 0 = non-ACP (Swissprot/PDB ID), ref CancerPPD, SATPdb, Swissprot (PDB)
[8] = ACPs dataset D3 (supplement sheet "D3"), 1 = ACP, 0 = non-ACP, ref CancerPPD [45] and SATPdb
[9] = ACPs dataset D5 (sheet "D5"), label 1 = ACP (positive set), 0 = non-ACP (negative set), ref CancerPPD [45] and SATPdb
[10] = ACPs dataset D3 (sheet "D3"), label 1 = ACP, 0 = non-ACP, ref CancerPPD/SATPdb
[11] = ACPs dataset D5, sheet "D5", label 1 = ACP, 0 = non-ACP, ref CancerPPD [45] and SATPdb
[12] = ACPs dataset D2 (supplement ACPs(seguence).xlsx, sheet D2), dataset label 1/0 (ACP / non-ACP), entries identified by Swissprot(PDB ID), ref CancerPPD/SATPdb/Swissprot(PDB)

GVFTLIKGATQLIGKTLGKELGKTGLEIMACKITKQC [satpdb12576]
Activity [1]: 0
Activity [2]: 0

FLGGLMKAFPAIICAVTKKC [satpdb13214]
Activity [1]: 0
Activity [3]: 0

GLFSKFNKKKIKSGLIKIIKTAGKEAGLEALRTGIDVIGCKIKGEC [satpdb11080]
Activity [4]: 0
Activity [2]: 0

ETFADWWKLLAE [compound 5061]
Activity [4]: 1
Activity [5]: 1
Activity [6]: 1
Activity [7]: 1

KNWKK-Aib-LKK-Aib-IK-Aib-VK [compound 3503]
Activity [8]: 1
Activity [2]: 1
Activity [9]: 1

GLPVCGETCTLGTCYTQGCTCSWPICKRN [satpdb13318]
Activity [1]: 0
Activity [3]: 0

KAYSTPRCKYLFRAVLCWL [satpdb14444]
Activity [10]: 0
Activity [3]: 0
Activity [11]: 0

GLFDIAKKVIGVIGSL [compound 1270]
Activity [8]: 1
Activity [2]: 1
Activity [9]: 1

KWKKLLKKPLKLLKKLL [satpdb14017]
Activity [10]: 0
Activity [3]: 0
Activity [11]: 0

AIGSILGALAKGLPTLISWIKNR [compound 4433]
Activity [4]: 1
Activity [5]: 1
Activity [6]: 1
Activity [7]: 1

FLPAVLRVAAQVVPTVFCAISKKC [satpdb11368]
Activity [4]: 0
Activity [2]: 0

TEWSVCNSRCGRGYQKRTR [satpdb19902]
Activity [4]: 1
Activity [5]: 1
Activity [6]: 1
Activity [7]: 1

DLWIRETLTSPKSLTG [satpdb21617]
Activity [4]: 1
Activity [5]: 1
Activity [6]: 1
Activity [7]: 1

MSGELLNAALLSFGLIFVGWALGALLLKIQGAEE [4OGQ X-ray 2.50，F，1-34]
Activity [9]: 0
Activity [7]: 0

GLMDTIKGVAKTVAASWLDKLKCKITGC [compound 4362]
Activity [4]: 1
Activity [5]: 1
Activity [6]: 1
Activity [7]: 1

FLSLIPSLVGGSISAFK [compound 3123]
Activity [8]: 1
Activity [5]: 1
Activity [6]: 1

ARLKKCFNKVTGYCRKKCKVGERYEIGCLSGKLCCAN [satpdb10509]
Activity [4]: 0
Activity [2]: 0

GLFDVIKAVASVIGGL [compound 4057]
Activity [8]: 1
Activity [2]: 1
Activity [9]: 1

MLELLKSLVFAVIMVPVVMAIILGLIYGLGEVFNIFSGVGKKDQPGQNH [4C48 X-ray 3.30,C,1-49]
Activity [12]: 0
Activity [9]: 0

GIPCGESCVYIPCLTSAIGCSCKSKVCYRN [satpdb13250]
Activity [1]: 0
Activity [3]: 0

KWKLFKKIGIGKFLHSATTF [compound 1188]
Activity [8]: 1
Activity [2]: 1
Activity [9]: 1

GIFGKILGAGKKVLCGLSGLC [satpdb11792]
Activity [1]: 0
Activity [2]: 0

YITCLFRGARCRVYSGRSCCFGYYCRRDFPGSIFGTCSRRNF [2DCW NMR - A 1-42]
Activity [12]: 0
Activity [9]: 0

KLCGETCFKFKCYTPGCSCSYPFCK [compound 4395]
Activity [4]: 1
Activity [5]: 1
Activity [6]: 1
Activity [7]: 1

LTFSDWWKLLAE [compound 5059]
Activity [4]: 1
Activity [5]: 1
Activity [6]: 1
Activity [7]: 1

GLFDVIKKVASVIGGL [compound 1421]
Activity [8]: 1
Activity [2]: 1
Activity [9]: 1

MISDEQLNSLAITFGIVMMTLIVIYHAVDSTMSPKN [1RKL NMR - A 1-36]
Activity [12]: 0
Activity [9]: 0

FLPAIVGAAAKFLPKIFCAISKKC [compound 4356]
Activity [4]: 1
Activity [5]: 1
Activity [6]: 1
Activity [7]: 1

GLLGPLLKIAKKVGSNLL [satpdb10622]
Activity [8]: 0
Activity [3]: 0
Activity [11]: 0

GLPTCGETCTLGTCYVPDCSCSWPICMKN [compound 4381]
Activity [4]: 1
Activity [5]: 1
Activity [6]: 1
Activity [7]: 1

ILPLKLPLLPLRR [satpdb14372]
Activity [10]: 0
Activity [3]: 0
Activity [11]: 0

GKWSKILGKLIR [compound 3644]
Activity [8]: 1
Activity [2]: 1
Activity [9]: 1

KKVCACPKILKPVCGSDGRTYANSCIARCNGVSIKSEGSCPTGILN [1LDT X-ray 1.90,L,1-46]
Activity [12]: 0
Activity [9]: 0

GPWGPCSGSCGPGRRLRRR [satpdb14705]
Activity [4]: 1
Activity [5]: 1
Activity [6]: 1
Activity [7]: 1

GFSPNLPGKGLRIS [satpdb13263]
Activity [1]: 0
Activity [3]: 0

SILSTLKDVGISAIKNAGSGVLKTLLCKLNKNCEK [satpdb12439]
Activity [1]: 0
Activity [2]: 0

GLLKRIKTLL [2MJQ NMR - A 1-10]
Activity [9]: 0
Activity [7]: 0

INEFLERSGIPRQRNQ [satpdb14958]
Activity [4]: 1
Activity [5]: 1
Activity [6]: 1
Activity [7]: 1

KDCKRESNTFPGICITKPPCRKACIREKFTDGHCSKILRRCLCTKPC [5KK4 X-ray 1.70 A/B/C/D/E/F 1-47]
Activity [12]: 0
Activity [9]: 0

GKIPVKAIKKAGAAIGKGLRAINIASTAHDVYSFFKPKHKKK [satpdb13363]
Activity [1]: 0
Activity [3]: 0

DGRKICLDPDAPRIKKIVQKKL [satpdb12249]
Activity [4]: 1
Activity [5]: 1
Activity [6]: 1
Activity [7]: 1

GFHDHGPCDPPSHK [satpdb16441]
Activity [4]: 1
Activity [5]: 1
Activity [6]: 1
Activity [7]: 1

INWKKIAEVGGKILSS [satpdb11077]
Activity [4]: 0
Activity [2]: 0

KIKLFKKWPKFLHLAKKF [satpdb14419]
Activity [10]: 0
Activity [3]: 0
Activity [11]: 0

MRKEFHNVLSSGQLLADKRPARDYNRK [compound 3072]
Activity [4]: 1
Activity [5]: 1
Activity [6]: 1
Activity [7]: 1

FKCRRWQWRMKKLGA [compound 1111]
Activity [8]: 1
Activity [5]: 1
Activity [6]: 1

GLFAVIKKVASVIKKL [compound 4111]
Activity [8]: 1
Activity [2]: 1
Activity [9]: 1

ISDYSIAMDKIRQQDFVNWLLAQKGKKSDWKHNITQ [satpdb11921]
Activity [1]: 0
Activity [2]: 0

AKRHHGYKRKFH [compound 1423]
Activity [8]: 1
Activity [5]: 1
Activity [6]: 1

LGQSAASAHHAYIVLAIENSFMTASKKK [compound 4207]
Activity [4]: 1
Activity [5]: 1
Activity [6]: 1
Activity [7]: 1

RLYRKVYGRLYRKVYGRLYRKVYGRLYRKVYGKKK [satpdb11459]
Activity [8]: 0
Activity [3]: 0
Activity [11]: 0

FLGMIPGLIGGLISAFK [compound 3125]
Activity [8]: 1
Activity [5]: 1
Activity [6]: 1

NGKQVCLDPEAPFLKKVIQKILDS [satpdb17154]
Activity [4]: 1
Activity [5]: 1
Activity [6]: 1
Activity [7]: 1

GVGDLIRKAV SVIKNIV [6GS3 X-ray 1.45 A/B 1-17]
Activity [9]: 0
Activity [7]: 0

KWKLFKKIGIGKFLHSAKKF [compound 1204]
Activity [8]: 1
Activity [2]: 1
Activity [9]: 1

KFCEKPSGTWSGVCGNSGACKDQCIRLEGAKHGSCNYKLPAHRCICYYEC [satpdb13047]
Activity [1]: 0
Activity [3]: 0

GSKKPVPIIYCNRRTGKCQRM [5XO4 NMR - A 1-21]
Activity [9]: 0
Activity [7]: 0

ATCDLLSPFKVGHAACAAHCIARGKRGGWCDKRAVCNCRK [satpdb11323]
Activity [4]: 0
Activity [2]: 0

TEWSACSKTCGMGISTRV [satpdb13253]
Activity [4]: 1
Activity [5]: 1
Activity [6]: 1
Activity [7]: 1

PKLlKTFlSKWIG [satpdb12561]
Activity [1]: 0
Activity [2]: 0

FLPVVAGLAAKVLPSIICAVTKKC [satpdb12902]
Activity [1]: 0
Activity [3]: 0
